Where “and” joins values, the source holds several entries; their conditions need not be identical. Identical values can stand only once.
Assays:
S. aureus ATCC 29213 = assay: Disc diffusion assay (DDA), also supplemented
P. granulosum PRP-044 [1] = assay: Disc diffusion assay (DDA), also supplemented; type: cell-based; conditions: 200 μg per disc
Description: (§4) The propionibacteria were cultured and maintained on Wilkins-Chalgren Anaerobe Medium (agar and broth) at pH 6.0; all cultures were incubated anaerobically at 37° C. for 72 hours.
(§5) A sterile paper disc was impregnated with a sample of the test compound in a suitable solvent and 30 minutes allowed for the solvents to evaporate (where possible). The disc was then placed on an agar plate onto which the test micro-organism had been inoculated. The plate was then incubated under the conditions described above, following which it was examined visually for signs of bacterial growth. […] The diameter of this zone of “inhibition” was measured using a ProtoCOL™ automated zone sizer (Synbiosis, Cambridge, UK).
(§6) For assays using Propionibacterium spp. strains the supplements used in the examples below were lipid (either Tween™ 80 or triolein, both at 1% v/v) and sodium chloride (100 mM).

P. granulosum PRP-019 [2] = assay: Disc diffusion assay (DDA), also supplemented; type: cell-based; conditions: 200 μg per disc
Description: as §4, §5, §6

P. acnes PRP-007 [3] = assay: Disc diffusion assay (DDA), also supplemented; type: cell-based, Propionibacterium acnes; conditions: 200 μg per disc
Description: as §4, §5, §6

P. acnes NCTC 737 = assay: Synergy disc diffusion assay (SDDA), also supplemented
P. granulosum PRP-006 = assay: Disc diffusion assay (DDA), also supplemented; type: cell-based; conditions: 200 μg per disc
Description: as §4, §5, §6

P. acnes PRP-002 [4] = assay: Disc diffusion assay (DDA), also supplemented; type: cell-based, Propionibacterium acnes; conditions: 200 μg per disc
Description: as §4, §5, §6

P. acnes PRP-008 [5] = conditions: P. acnes PRP-008 (resistance Clin); agar dilution
Description: (§1) This is a standard international method for quantitatively assessing the antimicrobial activity of a compound in a solid medium. […] A set amount of these antimicrobial stock solutions was then added to molten agar medium (ca. 55° C.), mixed thoroughly, poured into sterile Petri dishes and allowed to cool/set. The culture medium was as described above.
(§2) A Multipoint™ Inoculator (AQS Manufacturing Ltd, UK) was used to inoculate the plates by spotting the inocula onto the surface of the agar, delivering approximately 1 to 2 μl per spot (yielding 10^5 CFU (colony forming units) per spot).
(§3) The plate(s) were then incubated under the conditions described above, following which they were examined visually for signs of bacterial growth. The MIC value was ascertained when there was a marked reduction in, or total loss of, growth on the test plate at the lowest concentration as compared to that of the growth on the control plate.

P. granulosum PRP-043 = P. granulosum PRP-043 (resistance MLS); agar dilution
Description: as §1, §2, §3

P. granulosum PRP-021 = P. granulosum PRP-021 (resistance MLS); agar dilution
Description: as §1, §2, §3

P. acnes PRP-046 = P. acnes PRP-046 (resistance None); agar dilution
Description: as §1, §2, §3

P. acnes PRP-068 = P. acnes PRP-068 (resistance Ery); agar dilution
Description: as §1, §2, §3

P. granulosum PRP-044 [6] = conditions: P. granulosum PRP-044 (resistance MLS); agar dilution
Description: as §1, §2, §3

P. acnes PRP-101 = P. acnes PRP-101 (resistance Tet/MLS); agar dilution
Description: as §1, §2, §3

P. granulosum PRP-005 = P. granulosum PRP-005 (resistance MLSK); agar dilution
Description: as §1, §2, §3

P. acnes PRP-002 [7] = conditions: P. acnes PRP-002 (resistance Tet/MLS); agar dilution
Description: as §1, §2, §3

P. granulosum NCTC 11865 = P. granulosum NCTC 11865 (resistance None); agar dilution
Description: as §1, §2, §3

P. acnes PRP-053 = P. acnes PRP-053 (resistance Tet/MLS); agar dilution
Description: as §1, §2, §3

P. granulosum PRP-019 [8] = conditions: P. granulosum PRP-019 (resistance MLSK); agar dilution
Description: as §1, §2, §3

P. acnes PRP-007 [9] = conditions: P. acnes PRP-007 (resistance Clin); agar dilution
Description: as §1, §2, §3

P. acnes PRP-026 = P. acnes PRP-026 (resistance MLS); agar dilution
Description: as §1, §2, §3

P. acnes PRP-039 = P. acnes PRP-039 (resistance Tet/MLS); agar dilution
Description: as §1, §2, §3

P. acnes PRP-003 = P. acnes PRP-003 (resistance Tet); agar dilution
Description: as §1, §2, §3

P. acnes PRP-017 = P. acnes PRP-017 (resistance MLS); agar dilution
Description: as §1, §2, §3

P. acnes PRP-023 = P. acnes PRP-023 (resistance MLSK); agar dilution
Description: as §1, §2, §3

P. acnes PRP-059 = P. acnes PRP-059 (resistance MLS); agar dilution
Description: as §1, §2, §3

P. acnes PRP-102 = P. acnes PRP-102 (resistance Tet/MLS); agar dilution
Description: as §1, §2, §3

P. acnes PRP-008 [10] = assay: Disc diffusion assay (DDA), also supplemented; type: cell-based, Propionibacterium acnes; conditions: 200 μg per disc
Description: as §4, §5, §6

For `O.O.O.O.O.O=S(=O)([O-])[O-].[Cu+2]` [Copper (II) sulphate pentahydrate], which DDA (S. aureus ATCC 29213) is on record?
The DDA was 0 mm and 0.00 (±0.00) mm.

And the “DDA + lipid” value (S. aureus ATCC 29213)?
Its value is 0 mm.

What about the “DDA + salt” value (S. aureus ATCC 29213) of the same molecule?
The value was 0 mm.

What about the “DDA + salt & serum” value (S. aureus ATCC 29213) of the same molecule?
Its value is 0 mm and 0.00 (±0.00) mm.

What about the “DDA + salt” value (P. granulosum PRP-044 [1]) of the same molecule?
Its value is 31.92 mm.

What about the “DDA + lipid” value (P. granulosum PRP-044 [1]; 1% (v/v) triolein) of the same molecule?
Its value is 26.45 mm.

And the DDA (P. granulosum PRP-044 [1]; single replicate)?
The DDA was 27.36 mm.

What about the DDA (P. granulosum PRP-044 [1]; Table 12 series) of the same molecule?
The DDA was 27.81 mm.

What about the “DDA + salt” value (P. granulosum PRP-019 [2]) of the same molecule?
The value was 25.84 mm.

And the “DDA + lipid” value (P. granulosum PRP-019 [2]; 1% (v/v) triolein)?
Its value is 24.02 mm.

And the DDA (P. granulosum PRP-019 [2]; single replicate)?
The DDA was 22.80 mm.

What about the DDA (P. granulosum PRP-019 [2]; Table 12 series) of the same molecule?
Its DDA is 24.15 mm.

And the “DDA + salt” value (P. acnes PRP-007 [3])?
Its value is 55.03 mm.

What about the “DDA + lipid” value (P. acnes PRP-007 [3]; 1% (v/v) triolein) of the same molecule?
Its value is 48.95 mm.

And the DDA (P. acnes PRP-007 [3]; single replicate)?
Its DDA is 56.55 mm.

What about the DDA (P. acnes PRP-007 [3]; Table 12 series) of the same molecule?
The DDA was 40.35 mm.

What about the SDDA area increase (P. acnes NCTC 737) of the same molecule?
Its SDDA area increase is 108.63%.

What about the SDDA increase (P. acnes NCTC 737) of the same molecule?
The SDDA increase was 22.11 mm.

And the “SDDA with TBHQ” value (P. acnes NCTC 737)?
Its value is 71.86 mm.

And the “SL SDDA area increase” value (P. acnes NCTC 737)?
Its value is 64.85%.

And the “SL SDDA increase” value (P. acnes NCTC 737)?
Its value is 14.18 mm.

What about the “SL SDDA with TBHQ” value (P. acnes NCTC 737) of the same molecule?
The value was 64.14 mm.

What about the “DDA + salt” value (P. granulosum PRP-006) of the same molecule?
Its value is 37.09 mm.

And the “DDA + lipid” value (P. granulosum PRP-006; 1% (v/v) triolein)?
Its value is 30.71 mm.

What about the DDA (P. granulosum PRP-006; single replicate) of the same molecule?
Its DDA is 31.62 mm.

And the DDA (P. granulosum PRP-006; Table 12 series)?
Its DDA is 27.91 mm.

What about the “DDA + salt” value (P. acnes PRP-002 [4]) of the same molecule?
Its value is 50.77 mm.

And the “DDA + lipid” value (P. acnes PRP-002 [4]; 1% (v/v) triolein)?
The value was 47.13 mm.

And the DDA (P. acnes PRP-002 [4]; single replicate)?
The DDA was 49.25 mm.

What about the DDA (P. acnes PRP-002 [4]; Table 12 series) of the same molecule?
Its DDA is 57.92 mm.

And the MIC (P. acnes PRP-008 [5])?
Its MIC is 7.8 µg/mL.

What about the MIC (P. granulosum PRP-043) of the same molecule?
The MIC was 7.8 µg/mL.

And the MIC (P. granulosum PRP-021)?
The MIC was 62.5 µg/mL.

And the MIC (P. acnes PRP-046)?
Its MIC is 7.8 µg/mL.

What about the MIC (P. acnes PRP-068) of the same molecule?
Its MIC is 7.8 µg/mL.

And the MIC (P. granulosum PRP-044 [6])?
The MIC was 62.5 µg/mL.

What about the MIC (P. acnes PRP-101) of the same molecule?
The MIC was 7.8 µg/mL.

And the MIC (P. granulosum PRP-005)?
Its MIC is 62.5 µg/mL.

And the MIC (P. acnes PRP-002 [7])?
The MIC was 7.8 µg/mL.

And the MIC (P. granulosum NCTC 11865)?
The MIC was 7.8 µg/mL.

What about the MIC (P. acnes PRP-053) of the same molecule?
Its MIC is 7.8 µg/mL.

What about the MIC (P. granulosum PRP-019 [8]) of the same molecule?
Its MIC is 62.5 µg/mL.

And the MIC (P. acnes PRP-007 [9])?
The MIC was 7.8 µg/mL.

What about the MIC (P. acnes PRP-026) of the same molecule?
The MIC was 7.8 µg/mL.

And the MIC (P. acnes PRP-039)?
The MIC was 7.8 µg/mL.

What about the MIC (P. acnes PRP-003) of the same molecule?
Its MIC is 7.8 µg/mL.

What about the MIC (P. acnes PRP-017) of the same molecule?
Its MIC is 7.8 µg/mL.

What about the MIC (P. acnes PRP-023) of the same molecule?
Its MIC is 7.8 µg/mL.

And the MIC (P. acnes PRP-059)?
Its MIC is 7.8 µg/mL.

What about the MIC (P. acnes PRP-102) of the same molecule?
The MIC was 7.8 µg/mL.

What about the “DDA + salt” value (P. acnes PRP-008 [10]) of the same molecule?
The value was 51.99 mm.

And the “DDA + lipid” value (P. acnes PRP-008 [10]; 1% (v/v) triolein)?
Its value is 48.65 mm.

What about the DDA (P. acnes PRP-008 [10]; single replicate) of the same molecule?
The DDA was 52.29 mm.

What about the DDA (P. acnes PRP-008 [10]; Table 12 series) of the same molecule?
The DDA was 43.70 mm.

From patent US20090246292A1, “ANTIMICROBIAL FORMULATIONS COMPRISING A QUINONE AND A COPPER SALT” (priority 2006, published 2009)
